According to US20250127752A1, “REDUCED REBOUND EFFECTS IN SUBJECTS TREATED FOR OVERWEIGHT OR OBESITY” (Empros Pharma AB, priority 2021, published 2025):
Like-named read-outs stand apart in the source and are kept apart here.

Tests used:
[1] = oral, conventional dosage form; cited from earlier work
[2] = Pre-dose (trough) plasma level of orlistat and acarbose at steady state, week 26; assay type: in vivo, human; details: steady state week 26, patients on active treatment
[3] = cited from earlier work; for Placebo adjusted reduction of body weight: oral administration for 6 months; for Additional weight loss relative to placebo: at one year, on average
[4] = cited from earlier work
[5] = cited from earlier work; remark: listed apart in the source

Compound: OCCN1C[C@H](O)[C@@H](O)[C@H](O)[C@H]1CO [Miglitol]
- Fraction of the dose absorbed [1]: 100%

Compound: C[C@H]1O[C@H](O[C@H]2[C@H](O)[C@@H](O)[C@@H](O[C@H]3[C@H](O)[C@@H](O)C(O)O[C@@H]3CO)O[C@@H]2CO)[C@H](O)[C@@H](O)[C@@H]1N[C@H]1C=C(CO)[C@@H](O)[C@H](O)[C@H]1O (stereo partly drawn) [acarbose, O-4,6-Dideoxy-4-[[(1S,4R,5S,6S)-4,5,6-trihydroxy-3-(hydroxymethyl)cyclohex-2-enyl]amino]-α-D-glucopyranosyl-(1→4)-O-α-D-gluco-pyranosyl-(1→4)-D-glucopyranose]
- Patients in whom low plasma levels were measured [2]: 3 of 75
- Placebo adjusted reduction of body weight [3]: approx. 0.5%

Compound: C[C@H]1CNCCc2ccc(Cl)cc21 [lorcaserin]
- Additional weight loss relative to placebo [3]: ~3%
- Body weight decrease more than placebo ([3]; human, in vivo): about 3.2 kg
- Body weight decrease more than placebo, of initial body weight ([3]; human, in vivo): about 3.2%

Compound: CCCCCCCCCCC[C@@H](C[C@@H]1OC(=O)[C@H]1CCCCCC)OC(=O)[C@H](CC(C)C)NC=O [orlistat, (S)—((S)-1-((2S,3S)-3-Hexyl-4-oxooxetan-2-yl)tridecan-2-yl) 2-formamido-4-methylpentanoate]
- Patients complaining about GI side-effects (diarrhea, oily spotting, fecal urgency) ([4]; clinical trials, conventional dosage form): ≥ 25%
- Participants reporting faecal incontinence ([4]; similar 6-month trial): 5%
- Participants reporting faecal incontinence ([4]; trials of longer duration): approximately 18%
- Fraction of the dose absorbed [1]: < 3%
- Plasma exposure [1]: < 5 ng/mL
- Patients in whom low plasma levels were measured [2]: 27 of 75
- Solubility in water [5]: practically insoluble in water
- Water solubility [5]: less than 0.001 g/ml
- Additional weight loss relative to placebo [3]: ~3%
- Approximate relative weight loss ([3]; conventional dosage forms): 2-3%
- Placebo adjusted reduction of body weight [3]: 2-3%
- Relative weight loss, best case scenario ([3]; versus placebo 6%): 10%
